Our source for the cytotoxicity values is US20160297768A1, “NOVEL IMIDAZOLE DERIVATIVES AND THERAPEUTIC USE THEREOF” (INDUSTRY-ACA-DEMIC COORPERATION FOUNDATION, YONSEI …, priority 2013, published 2016).

One experiment has as its system A549 cells. In words: Apoptotic activity by MTT analysis, A549 cells. The class given is cell-based. Particulars: Homo sapiens, A549, 12 h, 15 μM of the compound, mean±standard deviation, read-out: Apoptosis (%) A549 cells. The protocol:
(§1) Lung cancer cells (A549), colorectal cancer cells (HCT116), HeLa cells, liver cancer cells (HepG2), T-cell leukemia cells (Jurkat), myeloid leukemia cells (K562), breast cancer cells (MCF-7 and MDA-MB-231) and myelocytic leukemia cells ([…]) were obtained from the American Type Culture Collection (ATCC), and cultured in 10% fetal bovine serum (FBS), 50 units/mL penicillin and 50 units/mL streptomycin-added RPMI 1640 (Invitrogen). The cells were maintained in a humidified 37° C., 5% CO2 atmosphere. The anticancer activity was detected by MTT analysis. Each type of cancer cells were plated in triplicate in a 96-well microtiter plate, and cultured at 37° C. for 24 hours. The cells were treated with each of the compounds prepared above at 37° C. for 12 hours. After the culturing of the cells, 10 μL of an MTT reagent ((3-[4,5-dimethyl-2-thiazolyl]-2,5-diphenyl-2H-tetrazoliumbromide) was added to each well, and cultured for 3.5 hours. The absorbance of each sample was detected using a UV microplate reader (SpectraMax 340PC 384, Molecular Devices) at 570 nm. The detection results were measured as a mean value. The effect of each compound on apoptosis is shown in Table 1.
(§2) The A549 and HeLa cells were treated with 15 μM of the compound for 12 hours. The apoptosis was detected using MTT (mean±standard deviation).

A further experiment relates to HeLa cells. Kind of experiment: Apoptotic activity by MTT analysis, HeLa cells. The class given is cell-based. The note with it: Homo sapiens, HeLa, 12 h, 15 μM of the compound, mean±standard deviation, read-out: Apoptosis (%) HeLa cells. The protocol:
as §1, §2

For `COc1ccc(-c2nc(-c3cc(C(F)(F)F)cc(C(F)(F)F)c3)n(Cc3ccc(C(=O)NCCCCCCCCN)cc3)c2-c2ccc(OC)cc2)cc1` [Example 193], the cytotoxicity at 15 µM turned out to be 77 ± 1.65% in the experiment with A549 cells and 94 ± 1.02% in the experiment on HeLa cells.
Take `COc1ccc(-c2nc(-c3cc(C(F)(F)F)cc(C(F)(F)F)c3)n(Cc3ccc(C(=O)NCCCCCCCCCN)cc3)c2-c2ccc(OC)cc2)cc1` [Example 194]: the cytotoxicity at 15 µM with A549 cells came to 80 ± 1.33%; in the experiment with HeLa cells, 84 ± 2.01%.
As to `COc1ccc(-c2nc(-c3cc(C(F)(F)F)cc(C(F)(F)F)c3)n(Cc3ccc(C(=O)NCCOCCOCCO)cc3)c2-c2ccc(OC)cc2)cc1` [Example 195, 4-((2-(3,5-bis(trifluoromethyl)phenyl)-4,5-bis(4-methoxyphenyl)-1H-imidazole-1-yl)methyl)-N-(2-(2-(2-hydroxyethoxy)ethoxy)ethyl)benzamide], the results for the cytotoxicity at 15 µM with A549 cells and in the experiment with HeLa cells were 86 ± 1.29% and 96 ± 0.98%, respectively.
In the same order, the values of `COc1ccc(-c2nc(-c3cc(C(F)(F)F)cc(C(F)(F)F)c3)n(Cc3ccc(C(=O)NCCOCCCOCCN)cc3)c2-c2ccc(OC)cc2)cc1` [Example 196, N-(2-(3-(2-aminoethoxy)propoxy)ethyl)-4-((2-(3,5-bis(trifluoromethyl)phenyl)-4,5-bis(4-methoxyphenyl)-1H-imidazole-1-yl)methyl)benzamide] are 0% and 0%.
In the same order, the values of `COc1ccc(-c2nc(-c3cc(C(F)(F)F)cc(C(F)(F)F)c3)n(Cc3ccc(C(=O)NCCCCCCCCCCN)cc3)c2-c2ccc(OC)cc2)cc1` [Example 197, N-(10-aminodecyl)-4-((2-(3,5-bis(trifluoromethyl)phenyl)-4,5-bis(4-methoxyphenyl)-1H-imidazole-1-yl)methyl)benzamide] are 96 ± 0.54% and 97 ± 1.22%.
With `COc1ccc(-c2nc(-c3cc(C(F)(F)F)cc(C(F)(F)F)c3)n(Cc3ccc(C(=O)NCCCOCCOCCCN)cc3)c2-c2ccc(OC)cc2)cc1` [Example 198, N-(3-(2-(3-aminopropoxy)ethoxy)propyl)-4-((2-(3,5-bis(trifluoromethyl)phenyl)-4,5-bis(4-methoxyphenyl)-1H-imidazole-1-yl)methyl)benzamide], the cytotoxicity at 15 µM in the experiment with A549 cells is 80 ± 1.43%; with HeLa cells it was 83 ± 1.07%.
The matching figures for `COc1ccc(-c2nc(-c3cc(C(F)(F)F)cc(C(F)(F)F)c3)n(Cc3ccc(C(=O)NCCCCCCCCCCCN)cc3)c2-c2ccc(OC)cc2)cc1` [Example 199, N-(11-aminoundecyl)-4-((2-(3,5-bis(trifluoromethyl)phenyl)-4,5-bis(4-methoxyphenyl)-1H-imidazole-1-yl)methyl)benzamide]: 89 ± 1.63% and 93 ± 1.72%.
With `COc1ccc(-c2nc(-c3cc(C(F)(F)F)cc(C(F)(F)F)c3)n(Cc3ccc(C(=O)NCCOCCOCCOCCN)cc3)c2-c2ccc(OC)cc2)cc1` [Example 200, N-(2-(2-(2-(2-aminoethoxy)ethoxy)ethoxy)ethyl)-4-((2-(3,5-bis(trifluoromethyl)phenyl)-4,5-bis(4-methoxyphenyl)-1H-imidazole-1-yl)methyl)benzamide], the cytotoxicity at 15 µM is 85 ± 1.44% in the experiment with A549 cells and 87 ± 0.78% in the experiment on HeLa cells.
